# Columns and labels:
# M. tuberculosis H37Rv = assay: Minimum inhibitory concentration (resazurin microplate); format: cell-based, Mycobacterium tuberculosis; details: for MIC: Mycobacterium tuberculosis, M. tuberculosis H37Rv, 7 days + 48 h resazurin, highest value of three assays; for Activity against M. tuberculosis H37Rv in words: at the highest concentrations evaluated
Structure (SMILES),MIC (M. tuberculosis H37Rv),Activity against M. tuberculosis H37Rv in words (M. tuberculosis H37Rv),melting point,"Fold reduction of activity versus 9n and 9o (M. tuberculosis H37Rv; MIC of unsubstituted benzyloxy compound versus 4-halogenated 9n, 9o)",Fold higher MIC than 9n (M. tuberculosis H37Rv; MIC ratio versus methylated analogue 9n)
"Cc1cc(NCc2ccc(OCc3ccccc3)cc2)c2ccccc2n1 [Compound 9a, N-(4-(benzyloxy)benzyl)-2-methylquinolin-4-amine]",> 7 µM,inactive,134 to 136 °C,–,–
"CCc1cc(NCc2ccc(OCc3ccccc3)cc2)c2cc(OC)ccc2n1 [Compound 9aa, N-(4-(benzyloxy)benzyl)-2-ethyl-6-methoxyquinolin-4-amine]",12.5 µM,–,118 to 120 °C,–,–
"Cc1cc(NCc2ccc(OCc3ccc(Cl)cc3)cc2)c2ccccc2n1 [Compound 9b, N-(4-((4-chlorobenzyl)oxy)benzyl)-2-methylquinolin-4-amine]",> 12.9 µM,inactive,111 to 113 °C,–,–
"Cc1cc(NCc2ccc(OCc3ccc(F)cc3)cc2)c2ccccc2n1 [Compound 9c, N-(4-((4-fluorobenzyl)oxy)benzyl)-2-methylquinolin-4-amine]",26.8 µM,–,134 to 136 °C,–,–
"Cc1cc(NCc2ccc(OCc3ccc(F)c(F)c3)cc2)c2ccccc2n1 [Compound 9d, N-(4-((3,4-difluorobenzyl)oxy)benzyl)-2-methylquinolin-4-amine]",25.6 µM,–,199 to 201 °C,–,–
"Cc1cc(NCc2ccc(OCc3ccc(C(C)C)cc3)cc2)c2ccccc2n1 [Compound 9e, N-(4-((4-isopropylbenzyl)oxy)benzyl)-2-methylquinolin-4-amine]",27 µM,–,95 to 97 °C,–,–
"COc1cc(COc2ccc(CNc3cc(C)nc4ccccc34)cc2)cc(OC)c1 [Compound 9f, N-(4-((3,5-dimethoxybenzyl)oxy)benzyl)-2-methylquinolin-4-amine]",12.1 µM,–,134 to 136 °C,–,–
"Cc1cc(NCc2ccc(OCc3ccccc3)cc2)c2cc(Cl)ccc2n1 [Compound 9g, N-(4-(benzyloxy)benzyl)-6-chloro-2-methylquinolin-4-amine]",6.4 µM,–,165 to 167 °C,–,–
"Cc1cc(NCc2ccc(OCc3ccc(Cl)cc3)cc2)c2cc(Cl)ccc2n1 [Compound 9h, N-(4-((4-chlorobenzyl)oxy)benzyl) 6-chloro-2-methylquinolin-4-amine]",5.9 µM,–,177 to 179 °C,–,–
"Cc1cc(NCc2ccc(OCc3ccc(F)cc3)cc2)c2cc(Cl)ccc2n1 [Compound 9i, N-(4-((4-fluorobenzyl)oxy)benzyl) 6-chloro-2-methylquinolin-4-amine]",6.1 µM,–,170 to 172 °C,–,–
"Cc1cc(NCc2ccc(OCc3ccc(F)c(F)c3)cc2)c2cc(Cl)ccc2n1 [Compound 9j, N-(4-((3,4-difluorobenzyl)oxy)benzyl)-6-chloro-2-methylquinolin-4-amine]",5.9 µM,–,137 to 139 °C,–,–
"Cc1cc(NCc2ccc(OCc3ccc(C(C)C)cc3)cc2)c2cc(Cl)ccc2n1 [Compound 9k, N-(4-((4-isopropylbenzyl)oxy)benzyl)-6-chloro-2-methylquinolin-4-amine]",5.8 µM,–,126 to 128 °C,–,–
"COc1cc(COc2ccc(CNc3cc(C)nc4ccc(Cl)cc34)cc2)cc(OC)c1 [Compound 9l, N-(4-((3,5-dimethoxybenzyl)oxy)benzyl)-6-chloro-2-methylquinolin-4-amine]",5.7 µM,–,147 to 149 °C,–,–
"Cc1cc(NCc2ccc(OCc3ccccc3)cc2)c2cc(Br)ccc2n1 [Compound 9m, N-(4-(benzyloxy)benzyl)-6-bromo-2-methylquinolin-4-amine]",5.8 µM,–,164 to 166 °C,more than 2 fold,–
"Cc1cc(NCc2ccc(OCc3ccc(F)c(F)c3)cc2)c2cc(Br)ccc2n1 [Compound 9p, N-(4-((3,4-difluorobenzyl)oxy)benzyl) 6-bromo-2-methylquinolin-4-amine]",5.3 µM,–,142 to 144 °C,–,–
"Cc1cc(NCc2ccc(OCc3ccc(C(C)C)cc3)cc2)c2cc(Br)ccc2n1 [Compound 9q, N-(4-((4-isopropylbenzyl)oxy)benzyl) 6-bromo-2-methylquinolin-4-amine]",5.3 µM,–,135 to 137 °C,–,–
"COc1cc(COc2ccc(CNc3cc(C)nc4ccc(Br)cc34)cc2)cc(OC)c1 [Compound 9r, N-(4-((3,5-dimethoxybenzyl)oxy)benzyl)-6-bromo-2-methylquinolin-4-amine]",5.1 µM,–,151 to 153 °C,–,–
"CCc1cc(NCc2ccc(OCc3ccccc3)cc2)c2cc(Br)ccc2n1 [Compound 9s, N-(4-(benzyloxy)benzyl)-6-bromo-2-ethylquinolin-4-amine]",5.6 µM,–,136 to 138 °C,–,–
"CCc1cc(NCc2ccc(OCc3ccc(Cl)cc3)cc2)c2cc(Br)ccc2n1 [Compound 9t, N-(4-((4-chlorobenzyl)oxy)benzyl)-6-bromo-2-ethylquinolin-4-amine]",5.2 µM,–,122 to 124 °C,–,1.9 fold
"COc1ccc2nc(C)cc(NCc3ccc(OCc4ccccc4)cc3)c2c1 [Compound 9u, N-(4-(benzyloxy)benzyl)-6-methoxy-2-methylquinolin-4-amine]",13 µM,–,96 to 98 °C,–,–
"COc1ccc2nc(C)cc(NCc3ccc(OCc4ccc(Cl)cc4)cc3)c2c1 [Compound 9v, N-(4-((4-chlorobenzyl)oxy)benzyl)-6-methoxy-2-methylquinolin-4-amine]",11.9 µM,–,259 to 261 °C,–,–
"COc1ccc2nc(C)cc(NCc3ccc(OCc4ccc(C(C)C)cc4)cc3)c2c1 [Compound 9w, N-(4-((4-isopropylbenzyl)oxy)benzyl)-6-methoxy-2-methylquinolin-4-amine]",23.4 µM,–,133 to 135 °C,–,–
"COc1ccc2nc(C)cc(NCc3ccc(OCc4ccc(F)cc4)cc3)c2c1 [Compound 9x, N-(4-((4-fluorobenzyl)oxy)benzyl)-6-methoxy-2-methylquinolin-4-amine]",12.4 µM,–,141 to 143 °C,–,–
"COc1ccc2nc(C)cc(NCc3ccc(OCc4ccc(F)c(F)c4)cc3)c2c1 [Compound 9y, N-(4-((3,4-difluorobenzyl)oxy)benzyl)-6-methoxy-2-methylquinolin-4-amine]",5.9 µM,–,104 to 106 °C,–,–
"COc1cc(COc2ccc(CNc3cc(C)nc4ccc(OC)cc34)cc2)cc(OC)c1 [Compound 9z, N-(4-((3,5-dimethoxybenzyl)oxy)benzyl)-6-methoxy-2-methylquinolin-4-amine]",11.2 µM,–,164 to 166 °C,–,–
"NNC(=O)c1ccncc1 [INH, isoniazid, reference compound]",2.3 µM,–,–,–,–

# — PMC9027910, “Synthesis and Antimycobacterial Evaluation of N-(4-(Benzyloxy)benzyl)-4-aminoquinolines” (Molecules, 2022)
